Data published in patent publication US8975417B2, “Pyrazolopyrrolidine derivatives and their use in the treatment of disease” (Novartis AG, priority 2013, dated 2015).

Legend:
[1] = molecular target: His-Brd4(44-477) (Homo sapiens (Human), UniProt O60885); test: TR-FRET in-vitro binding assay for BRD4; details: biochemical
Summary of the method: (§1)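 Bromodomain protein (45 nM in its addition solution) and tetra-acetylated histone H4 peptide (AcK5/8/12/16; 60 nM in its addition solution) were incubated with compounds for 35 min at 30 °C in 50 mM HEPES pH 7.5, 50 mM NaCl, 0.005% Tween20, 0.1% BSA. Eu-anti-His6 plus streptavidin-allophycocyanin detection followed, with TR-FRET read-out.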

[2] = molecular target: His-Brd2(60-472) (Homo sapiens (Human), UniProt P25440); test: TR-FRET in-vitro binding assay for BRD2; details: biochemical
His-Brd2(60-472), sequence (P25440 60-472): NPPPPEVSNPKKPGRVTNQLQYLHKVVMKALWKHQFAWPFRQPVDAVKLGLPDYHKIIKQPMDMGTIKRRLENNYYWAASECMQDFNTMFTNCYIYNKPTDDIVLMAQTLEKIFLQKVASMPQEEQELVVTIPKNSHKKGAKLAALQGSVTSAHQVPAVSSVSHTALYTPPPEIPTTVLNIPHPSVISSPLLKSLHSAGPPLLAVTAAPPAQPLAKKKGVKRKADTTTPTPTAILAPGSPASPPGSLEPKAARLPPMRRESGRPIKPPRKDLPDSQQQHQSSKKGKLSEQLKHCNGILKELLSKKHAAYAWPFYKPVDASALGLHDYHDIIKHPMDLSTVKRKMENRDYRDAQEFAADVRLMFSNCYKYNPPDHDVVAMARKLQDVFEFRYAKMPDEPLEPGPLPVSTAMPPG
Summary of the method: as §1

[3] = molecular target: His-Brd3(20-477) (Homo sapiens (Human), UniProt Q15059); test: TR-FRET in-vitro binding assay for BRD3; details: biochemical
His-Brd3(20-477), sequence (Q15059 20-477): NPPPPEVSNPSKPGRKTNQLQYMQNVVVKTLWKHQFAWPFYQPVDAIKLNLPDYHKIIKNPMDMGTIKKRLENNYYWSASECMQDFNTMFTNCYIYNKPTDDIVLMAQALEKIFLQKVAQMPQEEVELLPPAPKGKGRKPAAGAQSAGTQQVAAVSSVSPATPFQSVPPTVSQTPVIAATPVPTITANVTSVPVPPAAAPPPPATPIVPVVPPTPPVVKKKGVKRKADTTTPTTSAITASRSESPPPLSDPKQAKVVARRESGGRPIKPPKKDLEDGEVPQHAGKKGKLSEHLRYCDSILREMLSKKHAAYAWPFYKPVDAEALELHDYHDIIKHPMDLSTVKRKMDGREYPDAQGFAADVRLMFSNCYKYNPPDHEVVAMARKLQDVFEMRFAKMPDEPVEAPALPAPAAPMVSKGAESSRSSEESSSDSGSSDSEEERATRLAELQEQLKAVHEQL
Summary of the method: as §1

[4] = tested on: THP-1 cells; test: Cell growth inhibition assay (CellTiter-Glo), THP-1; format: cell-based; details: Homo sapiens, read-out: THP-1 TGI
Summary of the method: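 Compounds tested as 3-fold dilution series starting at 10 μM (DMSO 0.1% final); viability read by cellular ATP (CTG luminescence) at 37° C. Signal corrected for no-cell background and a day-0 plate, scaled −100% to 100%; four-parameter fitting gives IC50 and TGI.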

Row | Compound | IC50 [1] | IC50 [2] | IC50 [3] | IC (total growth inhibition) [4]
1 | Cc1nn(-c2ccnn2C)c2c1C(c1ccc(Cl)cc1)N(c1cc(C)c(=O)n(C)c1)C2=O (racemic) [Example 74, 4-(4-chlorophenyl)-5-(1,5-dimethyl-6-oxo-1,6-dihydropyridin-3-yl)-3-methyl-1-(1-methyl-1H-pyrazol-5-yl)-4,5-dihydropyrrolo[3,4-c]pyrazol-6(1H)-one] | 67 nM | 71 nM | 91 nM | –
2 | Cc1cc(N2C(=O)c3c(cnn3C3CC3)C2c2ccc(Cl)cc2)cn(C)c1=O (stereo not shown) [Example 34, 4-(4-chlorophenyl)-1-cyclopropyl-5-(1,5-dimethyl-6-oxo-1,6-dihydropyridin-3-yl)-4,5-dihydropyrrolo[3,4-c]pyrazol-6(1H)-one] | 110 nM | 95 nM | 110 nM | 0.321 µM
3 | Cc1nn(C2CC2)c2c1[C@@H](c1ccc(Cl)cc1)N(c1cc(Cl)c(=O)n(C)c1)C2=O [Example 51, (R)-5-(5-chloro-1-methyl-6-oxo-1,6-dihydropyridin-3-yl)-4-(4-chlorophenyl)-1-cyclopropyl-3-methyl-4,5-dihydropyrrolo[3,4-c]pyrazol-6(1H)-one] | 20 nM | 17 nM | 21 nM | 0.126 µM
4 | COc1ncc(-n2nc3c(c2C)C(c2ccc(Cl)cc2)N(c2cc(Cl)c(=O)n(C)c2)C3=O)c(OC)n1 (stereo not shown) [Example 55, 5-(5-chloro-1-methyl-6-oxo-1,6-dihydropyridin-3-yl)-4-(4-chlorophenyl)-2-(2,4-dimethoxypyrimidin-5-yl)-3-methyl-4,5-dihydropyrrolo[3,4-c]pyrazol-6(2H)-one] | 150 nM | 98 nM | 79 nM | 0.364 µM
5 | CCc1nn(C2CC2)c2c1C(c1ccc(Cl)cc1)N(c1cc(C)c3nnc(C)n3c1)C2=O (stereo not shown) [Example 70, 4-(4-chlorophenyl)-1-cyclopropyl-5-(3,8-dimethyl-[1,2,4]triazolo[4,3-a]pyridin-6-yl)-3-ethyl-4,5-dihydropyrrolo[3,4-c]pyrazol-6(1H)-one] | 24 nM | 31 nM | 29 nM | 0.0305 µM
6 | Cc1cc(N2C(=O)c3nn(C)c(O)c3C2c2ccc(Cl)cc2)cn(C)c1=O (stereo not shown) [Example 73, 4-(4-chlorophenyl)-5-(1,5-dimethyl-6-oxo-1,6-dihydropyridin-3-yl)-3-hydroxy-2-methyl-4,5-dihydropyrrolo[3,4-c]pyrazol-6(2H)-one] | 210 nM | 200 nM | 200 nM | > 10 µM
7 | CCOc1c2c(nn1C)C(=O)N(c1cc(C)c(=O)n(C)c1)C2c1ccc(Cl)cc1 (stereo not shown) [Example 76, 4-(4-chlorophenyl)-5-(1,5-dimethyl-6-oxo-1,6-dihydropyridin-3-yl)-3-ethoxy-2-methyl-4,5-dihydropyrrolo[3,4-c]pyrazol-6(2H)-one] | 120 nM | 100 nM | 100 nM | 0.3 µM
8 | COc1c2c(nn1C)C(=O)N(c1cc(C)c(=O)n(C)c1)C2c1ccc(Cl)cc1 (stereo not shown) [Example 77, 4-(4-chlorophenyl)-5-(1,5-dimethyl-6-oxo-1,6-dihydropyridin-3-yl)-3-methoxy-2-methyl-4,5-dihydropyrrolo[3,4-c]pyrazol-6(2H)-one] | 130 nM | – | – | 0.37 µM
9 | CCc1nn(CCO)c2c1C(c1ccc(Cl)cc1)N(c1cc(C)c3onc(C)c3c1)C2=O (stereo not shown) [Example 79, 4-(4-chlorophenyl)-5-(3,7-dimethylbenzo[d]isoxazol-5-yl)-3-ethyl-1-(2-hydroxyethyl)-4,5-dihydropyrrolo[3,4-c]pyrazol-6(1H)-one] | 78 nM | 110 nM | 86 nM | 0.461 µM
10 | CCc1c2c(nn1CCO)C(=O)N(c1cc(C)c3onc(C)c3c1)C2c1ccc(Cl)cc1 (stereo not shown) [Example 80, 4-(4-chlorophenyl)-5-(3,7-dimethylbenzo[d]isoxazol-5-yl)-3-ethyl-2-(2-hydroxyethyl)-4,5-dihydropyrrolo[3,4-c]pyrazol-6(2H)-one] | 35 nM | 59 nM | 36 nM | 1.03 µM
11 | Cc1ncccc1-n1nc2c(c1C)C(c1ccc(Cl)cc1)N(c1cc(C)c(=O)n(C)c1)C2=O (stereo not shown) [Example 81, 4-(4-chlorophenyl)-5-(1,5-dimethyl-6-oxo-1,6-dihydropyridin-3-yl)-3-methyl-2-(2-methylpyridin-3-yl)-4,5-dihydropyrrolo[3,4-c]pyrazol-6(2H)-one] | 110 nM | 120 nM | 97 nM | 0.422 µM
12 | Cc1nn(-c2cncn2C)c2c1C(c1ccc(Cl)cc1)N(c1cc(C)c(=O)n(C)c1)C2=O (stereo not shown) [Example 83, 4-(4-chlorophenyl)-5-(1,5-dimethyl-6-oxo-1,6-dihydropyridin-3-yl)-3-methyl-1-(1-methyl-1H-imidazol-5-yl)-4,5-dihydropyrrolo[3,4-c]pyrazol-6(1H)-one] | 91 nM | 120 nM | 97 nM | 0.396 µM
13 | CC(=O)Nc1cc(N2C(=O)c3c(c(C)nn3C3CC3)C2c2ccc(Cl)cc2)nn2c(C)nnc12 (stereo not shown) [Example 126, N-(6-(4-(4-chlorophenyl)-1-cyclopropyl-3-methyl-6-oxopyrrolo[3,4-c]pyrazol-5-(1H,4H,6H)-yl)-3-methyl-[1,2,4]triazolo[4,3-b]pyridazin-8-yl)acetamide] | 1100 nM | – | > 37000 nM | 1.15 µM
14 | COCc1nn(C2CC2)c2c1C(c1ccc(Cl)cc1)N(c1cc(C)c3nnc(C)n3c1)C2=O (stereo not shown) [Example 130, 4-(4-chlorophenyl)-1-cyclopropyl-5-(3,8-dimethyl-[1,2,4]triazolo[4,3-a]pyridin-6-yl)-3-(methoxymethyl)-4,5-dihydropyrrolo[3,4-c]pyrazol-6(1H)-one] | 42 nM | – | – | 0.0813 µM

Continued, in another order:

Row | IC50 [1] | IC50 [2] | IC50 [3] | Compound | IC (total growth inhibition) [4]
15 | 87 nM | 63 nM | 69 nM | COc1ncc(-n2nc(C)c3c2C(=O)N(c2cc(C)c(=O)n(C)c2)C3c2ccc(Cl)cc2)c(OC)n1 (racemic) [Example 52, 4-(4-chlorophenyl)-1-(2,4-dimethoxypyrimidin-5-yl)-5-(1,5-dimethyl-6-oxo-1,6-dihydropyridin-3-yl)-3-methyl-4,5-dihydropyrrolo[3,4-c]pyrazol-6(1H)-one] | –
16 | 210 nM | 170 nM | 280 nM | Cn1cc(N2C(=O)c3c(c(C(F)(F)F)nn3C3CC3)C2c2ccc(Cl)cc2)cc(Cl)c1=O (stereo not shown) [Example 44, 5-(5-chloro-1-methyl-6-oxo-1,6-dihydropyridin-3-yl)-4-(4-chlorophenyl)-1-cyclopropyl-3-(trifluoromethyl)-4,5-dihydropyrrolo[3,4-c]pyrazol-6(1H)-one] | 0.484 µM
17 | 17 nM | 15 nM | 19 nM | Cc1nn(C2CC2)c2c1[C@@H](c1ccc(Cl)cc1)N(c1cc(C)c(=O)n(C)c1)C2=O [Example 49, (R)-4-(4-chlorophenyl)-1-cyclopropyl-5-(1,5-dimethyl-6-oxo-1,6-dihydropyridin-3-yl)-3-methyl-4,5-dihydropyrrolo[3,4-c]pyrazol-6(1H)-one] | 0.0603 µM
18 | 260 nM | 480 nM | 300 nM | COc1ncc(-n2nc3c(c2C(C)C)C(c2ccc(Cl)cc2)N(c2ccc4onc(C)c4c2)C3=O)c(OC)n1 (stereo not shown) [Example 54, 4-(4-chlorophenyl)-2-(2,4-dimethoxypyrimidin-5-yl)-3-isopropyl-5-(3-methylbenzo-[d]isoxazol-5-yl)-4,5-dihydropyrrolo[3,4-c]pyrazol-6(2H)-one] | 1.43 µM
19 | 79 nM | 60 nM | 73 nM | COc1ncccc1-n1nc(C)c2c1C(=O)N(c1cc(Cl)c(=O)n(C)c1)C2c1ccc(Cl)cc1 (stereo not shown) [Example 72, 5-(5-chloro-1-methyl-6-oxo-1,6-dihydropyridin-3-yl)-4-(4-chlorophenyl)-1-(2-methoxypyridin-3-yl)-3-methyl-4,5-dihydropyrrolo[3,4-c]pyrazol-6(1H)-one] | 0.408 µM
20 | 63 nM | 79 nM | 57 nM | CCc1nn(CCO)c2c1C(c1ccc(Cl)cc1)N(c1cc(C)c(=O)n(C)c1)C2=O (stereo not shown) [Example 78, 4-(4-chlorophenyl)-5-(1,5-dimethyl-6-oxo-1,6-dihydropyridin-3-yl)-3-ethyl-1-(2-hydroxyethyl)-4,5-dihydropyrrolo[3,4-c]pyrazol-6(1H)-one] | 0.223 µM
21 | 68 nM | 97 nM | 96 nM | Cc1ncccc1-n1nc(C)c2c1C(=O)N(c1cc(C)c(=O)n(C)c1)C2c1ccc(Cl)cc1 (stereo not shown) [Example 82, 4-(4-chlorophenyl)-5-(1,5-dimethyl-6-oxo-1,6-dihydropyridin-3-yl)-3-methyl-1-(2-methylpyridin-3-yl)-4,5-dihydropyrrolo[3,4-c]pyrazol-6(1H)-one] | 0.406 µM
22 | < 11 nM | – | – | Cc1nn(C2CC2)c2c1[C@@H](c1ccc(Cl)cc1)N(c1cc(C)c3nnc(C)n3n1)C2=O [Example 122, (R)-4-(4-chlorophenyl)-1-cyclopropyl-5-(3,8-dimethyl-[1,2,4]triazolo[4,3-b]-pyridazin-6-yl)-3-methyl-4,5-dihydropyrrolo[3,4-c]pyrazol-6(1H)-one] | 0.0107 µM
